Experimental data published in ChEMBL document CHEMBL1201862, “PubChem BioAssay data set” (2004).
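Assay format: 96-well plates, 48-hour exposure. GI50 marks 50% less growth.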 Calls of active or inactive are those of the source. Rule as the data show it: active = GI50 up to about 1.1 µM and inactive = higher.

Key:
Assay in all cases: DTP human tumour cell line panel, 48 h
786-0 = test system: 786-0
HCC 2998 = test system: HCC 2998
HOP-92 = test system: HOP-92
HT-29 = test system: HT-29
K562 = test system: K562
MOLT-4 = test system: MOLT-4
Malme-3M = test system: Malme-3M
OVCAR-5 = test system: OVCAR-5
RXF 393 = test system: RXF 393
SF-295 = test system: SF-295
SN12C = test system: SN12C
SNB-75 = test system: SNB-75
TK-10 = test system: TK-10
UACC-62 = test system: UACC-62
COLO 205 = test system: COLO 205
LOX IMVI = test system: LOX IMVI

Measured: GI50

Clc1ccc(C2N3CCCCC3[C@@H]3c4[nH]c5ccccc5c4CCN23)cc1 (stereo partly specified)
inactive: 786-0 > 100 µM | HCC 2998 34.9 µM | HOP-92 > 100 µM | HT-29 22.5 µM | K562 38 µM | MOLT-4 64.7 µM | Malme-3M 19.7 µM | OVCAR-5 56.8 µM | RXF 393 35.2 µM | SF-295 67.1 µM | SN12C 24.1 µM | SNB-75 80.5 µM | TK-10 > 100 µM | UACC-62 50.6 µM

O=[N+]([O-])c1ccc2occ3c2c1CCC3
inactive: 786-0 > 100 µM | COLO 205 > 100 µM | HCC 2998 > 100 µM | HOP-92 35.2 µM | HT-29 > 100 µM | K562 > 100 µM | LOX IMVI > 100 µM | MOLT-4 > 100 µM | Malme-3M > 100 µM | OVCAR-5 86.1 µM | RXF 393 > 100 µM | SF-295 > 100 µM | SN12C > 100 µM | SNB-75 24.4 µM | TK-10 > 100 µM | UACC-62 > 100 µM

O=c1c2ccccc2c(=O)n2n1CC=CC2
inactive: 786-0 > 100 µM | COLO 205 > 100 µM | HCC 2998 > 100 µM | HOP-92 > 100 µM | HT-29 > 100 µM | K562 > 100 µM | LOX IMVI > 100 µM | MOLT-4 > 100 µM | Malme-3M > 100 µM | OVCAR-5 > 100 µM | RXF 393 > 100 µM | SF-295 > 100 µM | SN12C > 100 µM | SNB-75 > 100 µM | TK-10 > 100 µM | UACC-62 > 100 µM

CC(C)(C)CC(C)(C)c1cc2c(O)c(c1)Cc1cc(C(C)(C)CC(C)(C)C)cc(c1O)Cc1cc(C(C)(C)CC(C)(C)C)cc(c1O)Cc1cc(C(C)(C)CC(C)(C)C)cc(c1O)C2
inactive: 786-0 > 100 µM | COLO 205 > 100 µM | HCC 2998 > 100 µM | HOP-92 > 100 µM | HT-29 > 100 µM | K562 > 100 µM | MOLT-4 > 100 µM | Malme-3M > 100 µM | OVCAR-5 > 100 µM | RXF 393 > 100 µM | SF-295 > 100 µM | SN12C > 100 µM | SNB-75 > 100 µM | TK-10 > 100 µM | UACC-62 > 100 µM

Clc1cccc(C2SCc3nc4ccccc4n32)c1Cl (stereo unspecified)
inactive: 786-0 17.7 µM | COLO 205 19.8 µM | HOP-92 15.2 µM | HT-29 13.6 µM | K562 12.8 µM | MOLT-4 11.1 µM | OVCAR-5 13.9 µM | RXF 393 15.6 µM | SF-295 16.5 µM | SN12C 16.1 µM | SNB-75 4.51 µM | TK-10 15.6 µM | UACC-62 19.7 µM

CCn1c2ccccc2c2ccc3c(c21)C(=O)c1ccccc1C3=O
inactive: 786-0 > 100 µM | COLO 205 55.8 µM | HCC 2998 > 100 µM | HOP-92 82.2 µM | HT-29 > 100 µM | K562 > 100 µM | MOLT-4 61.5 µM | Malme-3M 81.1 µM | RXF 393 84.1 µM | SF-295 91.2 µM | SN12C > 100 µM | SNB-75 > 100 µM | UACC-62 > 100 µM

CC(=O)OC1C/C(C)=C/CCC(C)/C=C/C2(C)CCC(C(C)(C)O)C12 (stereo unspecified)
inactive: 786-0 65 µM | COLO 205 39.8 µM | HCC 2998 57.4 µM | HOP-92 18.5 µM | HT-29 33.4 µM | K562 36.7 µM | LOX IMVI 39.1 µM | MOLT-4 30.4 µM | Malme-3M 63 µM | OVCAR-5 > 100 µM | RXF 393 14 µM | SF-295 80.7 µM | SN12C 32.1 µM | SNB-75 40.7 µM | TK-10 > 100 µM | UACC-62 80.4 µM

Cc1ccc(/C=C/C(=O)c2ccc(Cl)c(Cl)c2)cc1
inactive: 786-0 > 100 µM | COLO 205 > 100 µM | HCC 2998 > 100 µM | HT-29 > 100 µM | K562 > 100 µM | LOX IMVI > 100 µM | MOLT-4 > 100 µM | Malme-3M > 100 µM | OVCAR-5 > 100 µM | RXF 393 84.1 µM | SF-295 > 100 µM | SN12C > 100 µM | SNB-75 > 100 µM | TK-10 > 100 µM | UACC-62 > 100 µM

C1CCN(c2nc(=[N+]3CCCCC3)ss2)CC1
inactive: 786-0 > 100 µM | HCC 2998 > 100 µM | HOP-92 > 100 µM | HT-29 > 100 µM | K562 90.6 µM | LOX IMVI 41.1 µM | MOLT-4 > 100 µM | Malme-3M > 100 µM | OVCAR-5 > 100 µM | RXF 393 > 100 µM | SF-295 > 100 µM | SN12C > 100 µM | SNB-75 > 100 µM | TK-10 > 100 µM | UACC-62 > 100 µM

O=C1C=Cc2c(-c3ccccc3)oc3cccc1c23
inactive: 786-0 23.7 µM | COLO 205 15.8 µM | HCC 2998 25.6 µM | HOP-92 13.4 µM | HT-29 23.4 µM | K562 17.2 µM | LOX IMVI 11.2 µM | MOLT-4 3.76 µM | Malme-3M 37 µM | OVCAR-5 26.4 µM | RXF 393 24.1 µM | SF-295 25.7 µM | SN12C 9.82 µM | SNB-75 4.33 µM | TK-10 39.7 µM | UACC-62 11.2 µM

CCOc1ccc(/N=N/c2c(-c3ccccc3)nn(C(=O)CC(=O)Nc3ccccc3Cl)c2-c2ccccc2)cc1
inactive: 786-0 > 100 µM | COLO 205 64.9 µM | HCC 2998 41.5 µM | HOP-92 48.8 µM | HT-29 33.7 µM | K562 30.2 µM | LOX IMVI 42.2 µM | MOLT-4 34.1 µM | Malme-3M > 100 µM | OVCAR-5 > 100 µM | RXF 393 34.2 µM | SF-295 68.5 µM | SN12C > 100 µM | SNB-75 21.2 µM | TK-10 74.6 µM | UACC-62 77.1 µM

C/C=C/COC(=O)CO[N+](=O)[O-]
inactive: 786-0 > 100 µM | COLO 205 > 100 µM | HCC 2998 > 100 µM | HOP-92 > 100 µM | HT-29 > 100 µM | K562 > 100 µM | LOX IMVI > 100 µM | MOLT-4 > 100 µM | Malme-3M > 100 µM | OVCAR-5 > 100 µM | RXF 393 > 100 µM | SF-295 > 100 µM | SN12C > 100 µM | SNB-75 > 100 µM | TK-10 > 100 µM | UACC-62 > 10 µM

Cc1ccccc1NC(=O)CC1C(=O)Nc2ccccc2[S+]1[O-] (stereo unspecified)
inactive: 786-0 49.7 µM | HCC 2998 > 100 µM | HOP-92 52.7 µM | HT-29 > 100 µM | K562 > 100 µM | LOX IMVI > 100 µM | MOLT-4 > 100 µM | Malme-3M > 100 µM | OVCAR-5 > 100 µM | RXF 393 26.6 µM | SF-295 > 100 µM | SN12C 74 µM | SNB-75 25.6 µM | TK-10 > 100 µM | UACC-62 > 100 µM

O=C1CCNC(=O)NC1
inactive: 786-0 > 100 µM | COLO 205 > 100 µM | HOP-92 > 100 µM | HT-29 > 100 µM | K562 > 100 µM | LOX IMVI > 100 µM | MOLT-4 23.1 µM | Malme-3M > 100 µM | OVCAR-5 > 100 µM | RXF 393 > 100 µM | SF-295 > 100 µM | SN12C > 100 µM | SNB-75 > 100 µM | TK-10 > 100 µM | UACC-62 > 100 µM

N=C1N(c2ccccc2)C(=O)C23CCCC2C13N1CCOCC1 (stereo unspecified)
inactive: 786-0 > 100 µM | COLO 205 > 100 µM | HCC 2998 > 100 µM | HOP-92 > 100 µM | HT-29 > 100 µM | K562 > 100 µM | MOLT-4 > 100 µM | Malme-3M > 100 µM | OVCAR-5 > 100 µM | RXF 393 > 100 µM | SF-295 > 100 µM | SN12C > 100 µM | SNB-75 > 100 µM | UACC-62 > 100 µM

Nc1nc2c3nc(Nc4ccccc4)sc3nc(=O)n2c2sc(Nc3ccccc3)nc12
inactive: 786-0 > 100 µM | COLO 205 > 100 µM | HCC 2998 > 100 µM | HOP-92 > 100 µM | HT-29 > 100 µM | K562 > 100 µM | MOLT-4 > 100 µM | Malme-3M > 100 µM | RXF 393 > 100 µM | SF-295 > 100 µM | SN12C > 100 µM | SNB-75 > 100 µM | UACC-62 > 100 µM

CCCCCCC(C)CCCCCCCCCCC(=O)O (stereo unspecified)
inactive: 786-0 > 100 µM | COLO 205 > 100 µM | HOP-92 > 100 µM | HT-29 > 100 µM | K562 > 100 µM | LOX IMVI > 100 µM | MOLT-4 > 100 µM | Malme-3M > 100 µM | OVCAR-5 > 100 µM | RXF 393 > 100 µM | SF-295 > 100 µM | SN12C > 100 µM | SNB-75 > 100 µM | TK-10 > 100 µM | UACC-62 > 100 µM

CC1(C)C(=O)CCC(=O)C(C)(C)C2=CC=C(O2)C(C)(C)C(=O)CCC(=O)C(C)(C)C2=CC=C1O2
inactive: 786-0 > 100 µM | COLO 205 > 100 µM | HCC 2998 > 100 µM | HOP-92 76.9 µM | HT-29 > 100 µM | K562 > 100 µM | LOX IMVI > 100 µM | MOLT-4 > 100 µM | Malme-3M > 100 µM | OVCAR-5 > 100 µM | RXF 393 > 100 µM | SF-295 > 100 µM | TK-10 > 100 µM
